These results are taken from patent US11299472B2, “Fumarate salt of (R)-3-(1-(2,3-dichloro-4-(pyrazin-2-yl)phenyl)-2,2,2- trifluoroethyl)-1-methyl-1-(1-methylpiperidin-4-yl) urea, methods of preparation, and uses thereof” (Helsinn Healthcare SA, priority 2017, dated 2022).

A short description of data set [1]: Rat pharmacokinetic study, HM04 free base vs HM04 fumarate salt (Example 9). It is filed as in vivo, male Sprague Dawley rats. The following applies: 3 mg/kg oral, mean ± S.D., n=3. The protocol:
The pharmacokinetics of HM04 in plasma of male Sprague Dawley rats dosed with a single oral administration of 3 mg/kg HM04 (based on the weight of the free base) formulated in a solution of 10% DMAC, 6% Solutol, and 84% PBS using either the HM04 free base or HM04 fumarate salt were compared. Blood samples were withdrawn at set time intervals and plasma concentration of HM04 was measured by LC-MS/MS. A comparison of the plasma concentration of HM04 (ng/mL) over time in rats dosed orally with HM04 free base and HM04 fumarate salt is provided in FIG. 17.

In a further data set the target is T1, human GHSR1a receptor (Homo sapiens, UniProt Q92847).
T1 construct: expressed in transfected cells; host or cells: HEK293
Put plainly: Antagonist FLIPR assay in HEK293 cells. It is filed as cell-based. The following applies: HEK293 cells expressing human GHSR1a, in duplicate, HM04 tested as fumarate salt. Here is the method:
The compounds were diluted with 100% DMSO to make 30 mM stock. On the test day, serial dilutions were prepared starting from the stock solution. For the FLIPR assay: 1) 8 μl of DMSO was added to 2 μl of compound stock solution (30 mM) to produce 10 μl of 6 mM solution; half-fold serial dilutions of the 6 mM solution were produced to generate ten doses; 2) test solutions were obtained by diluting the stock solutions 1/40 in assay buffer (DMSO concentration 2.5%). […]
For the agonist and antagonist activity study, HEK293 cells stably expressing human GHSR1a receptor were used in a (FLIPR) assay. […] Fluorescence signal was detected with FLIPR at room temperature according to standard settings for 10 minutes before cells were exposed to 10 μl of 5× working concentrations of agonists (compound added by FLIPR). The fluorescence signal was detected in the subsequent 3 minutes (antagonist mode).
Data were reported as relative light units (RLUs) and analyzed using GraphPad Software Inc. version 6. The half maximal inhibitory concentration (IC50) measured for HM04 and R011 were calculated by non-linear regression analysis.

T1 sequence (Q92847 whole entry): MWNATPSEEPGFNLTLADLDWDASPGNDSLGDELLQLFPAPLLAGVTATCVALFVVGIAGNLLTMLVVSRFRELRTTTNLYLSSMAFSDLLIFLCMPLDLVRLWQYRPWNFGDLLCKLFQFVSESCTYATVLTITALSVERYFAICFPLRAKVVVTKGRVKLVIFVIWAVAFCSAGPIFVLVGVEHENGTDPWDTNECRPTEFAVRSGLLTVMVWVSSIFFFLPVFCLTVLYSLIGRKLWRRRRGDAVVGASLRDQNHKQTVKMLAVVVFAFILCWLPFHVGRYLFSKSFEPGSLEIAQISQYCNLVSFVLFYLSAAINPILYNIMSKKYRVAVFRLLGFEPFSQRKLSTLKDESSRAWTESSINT

Regarding `CN1CCC(N(C)C(=O)N[C@H](c2ccc(-c3cnccn3)c(Cl)c2Cl)C(F)(F)F)CC1.O=C(O)/C=C/C(=O)O` [HM04 fumarate salt, (R)-3-(1-(2,3-dichloro-4-(pyrazin-2-yl)phenyl)-2,2,2-trifluoroethyl)-1-methyl-1-(1-methylpiperidin-4-yl)urea fumarate salt], the HM04 plasma concentration is given as 325.9 ± 187.8 ng/mL in data set [1] (0.50 hours), 201.0 ± 38.7 ng/mL in data set [1] (1 hour), 173.9 ± 12.2 ng/mL in data set [1] (2 hours) and 42.3 ± 2.5 ng/mL in data set [1] (8 hours). In data set [1] (male, Sprague Dawley, plasma), the AUC(0-t) amounted to 970 ± 147 ng·h/mL. In addition, the time of peak concentration (Tmax) in data set [1] (male, Sprague Dawley, plasma) stood at 49.8 ± 17.4 min.

In the case of `CN1CCC(N(C)C(=O)N[C@H](c2ccc(-c3cnccn3)c(Cl)c2Cl)C(F)(F)F)CC1` [HM04, (R)-3-(1-(2,3-dichloro-4-(pyrazin-2-yl)phenyl)-2,2,2-trifluoroethyl)-1-methyl-1-(1-methylpiperidin-4-yl)urea], the IC50 at human GHSR1a receptor turned out to be 7.31 nM.

Usually AUC(0-t) stands for exposure summed from dosing to a finite time, without extrapolation to infinity. The Tmax is the time from dosing to the highest level. As a reminder, the IC50 is the concentration at which inhibition is half-maximal.
